Consider 38 compounds from ChEMBL document CHEMBL1156573, “Design and synthesis of a novel series of N-alkyl isatin acylhydrazone derivatives that act as selective cannabinoid receptor 2 agonists for the treatment of neuropathic pain” (J Med Chem, 2008).

Active and inactive are the calls of the source. No cut-off for these calls is given here. A value given as a limit tells only on which side of the number the result lay.

For data set [1], the target named is T1, Cannabinoid receptor 2 (Homo sapiens, UniProt P34972). Kind of data set: Displacement of [3H](R)-3-methyl-2-(3-(morpholinomethyl)-3,4-dihydro-2H-benzo[b][1,4]oxazin-5-yl)-1-(naphthalen-1-yl)but-2-en-1-one from human CB2 receptor expressed in CHO cells at 10 uM by liquid scintillation counting. Format: cell-based. On the technique in general: Loss of bound radioactivity is the signal in a displacement assay; it reports binding, not function.

Data set [2] concerns the target Cannabinoid receptor 1 (Homo sapiens) (UniProt P21554). In words: Agonist activity at human CB1 receptor expressed in CHO cells by [35S]GTPgammaS assay relative to CP-55940. Format: functional, cell-based. (GTPγS resists hydrolysis and so accumulates on activated G proteins.)
Data set [3] has as its target T1, Cannabinoid receptor 2. In words: Agonist activity at human CB2 receptor expressed in CHO cells by [35S]GTPgammaS assay relative to CP-55940. Format: functional, cell-based.
Data set [4] deals with Cannabinoid receptor 1 (Homo sapiens) (UniProt P21554). In words: Displacement of [3H]CP-55940 from human CB1 receptor expressed in CHO cells at 10 uM by liquid scintillation counting. It is filed as cell-based.
Data set [5] deals with T1, Cannabinoid receptor 2. Kind of data set: Displacement of [3H]CP-55940 from human CB2 receptor expressed in CHOK1 cells by liquid scintillation counting. Format: cell-based, CHO-K1.
Data set [6] concerns the target T1, Cannabinoid receptor 2. In words: Displacement of [3H](R)-3-methyl-2-(3-(morpholinomethyl)-3,4-dihydro-2H-benzo[b][1,4]oxazin-5-yl)-1-(naphthalen-1-yl)but-2-en-1-one from human CB2 receptor expressed in CHO cells at 1 uM by liquid scintillation counting. Format: cell-based.
In data set [7] the target is Cannabinoid receptor 1 (Homo sapiens) (UniProt P21554). Kind of data set: Displacement of [3H]CP-55940 from human CB1 receptor expressed in CHO cells at 1 uM by liquid scintillation counting. It is filed as cell-based.
The target is the same in data set [8]. Kind of data set: Agonist activity at human CB1 receptor expressed in CHO cells at 10 uM by [35S]GTPgammaS assay. It is filed as functional, cell-based.
The target of data set [9] is T1, Cannabinoid receptor 2. In words: Agonist activity at human CB2 receptor expressed in CHO cells at 3 uM by [35S]GTPgammaS assay relative to CP-55940. Format: functional, cell-based.
Data set [10] concerns the target Cannabinoid receptor 1 (Homo sapiens) (UniProt P21554). Kind of data set: Agonist activity at human CB1 receptor expressed in CHO cells at 3 uM by [35S]GTPgammaS assay relative to CP-55940. Format: functional, cell-based.
The subject of data set [11] is Rattus norvegicus. In words: Antiallodynic activity in AM-630-pretreated ip dosed spinal nerve ligated Sprague-Dawley rat model assessed as inhibition of tactile allodynia. Format: functional, organism-based.
Data set [12] concerns Rattus norvegicus. Kind of data set: Toxicity in Sprague-Dawley rat assessed as exploratory behavior at 15 mg/kg, ip by open-field chamber test. Format: organism-based. Set-up: dose 15 mg/kg, route intraperitoneal. Particulars: in vivo.
For data set [13], the system named is Rattus norvegicus. In words: Antiallodynic activity in spinal nerve ligated Sprague-Dawley rat model assessed as inhibition of tactile allodynia at 15 mg/kg, ip. Set-up: dose 15 mg/kg. Format: functional, organism-based.
Data set [14] has as its system Rattus norvegicus. In words: Antiallodynic activity in ip dosed spinal nerve ligated Sprague-Dawley rat model assessed as inhibition of tactile allodynia. It is filed as functional.
Data set [15] concerns Rattus norvegicus. In words: Antiallodynic activity in spinal nerve ligated Sprague-Dawley rat model assessed as inhibition of tactile allodynia at 10 mg/kg, ip. It is filed as functional, organism-based. The arrangement: dose 10 mg/kg.
The target in data set [16] is T1, Cannabinoid receptor 2. In words: Agonist activity at human CB2 receptor expressed in CHO cells by [35S]GTPgammaS assay. It is filed as functional, cell-based.

A word on the Emax: it is the maximal effect, on the per cent scale that the assay sets. Broadly, the Ki is the equilibrium dissociation constant of an inhibitor or competing ligand from its target. What is called EC50 is the concentration at which the effect is half-maximal. The low end stands for an effect from little substance, the high end for a need for much substance.

T1 sequence (P34972 whole entry): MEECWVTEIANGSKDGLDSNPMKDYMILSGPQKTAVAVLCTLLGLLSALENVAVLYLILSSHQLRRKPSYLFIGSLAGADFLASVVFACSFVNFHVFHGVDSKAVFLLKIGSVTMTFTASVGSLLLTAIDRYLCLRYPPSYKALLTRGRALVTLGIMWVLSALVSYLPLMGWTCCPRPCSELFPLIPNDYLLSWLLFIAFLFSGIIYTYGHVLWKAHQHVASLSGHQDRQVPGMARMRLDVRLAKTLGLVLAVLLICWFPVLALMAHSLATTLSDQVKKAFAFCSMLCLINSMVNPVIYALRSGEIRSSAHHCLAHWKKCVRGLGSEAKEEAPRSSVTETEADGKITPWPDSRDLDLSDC
Chain of Cannabinoid receptor 1 (Homo sapiens) (P21554 whole entry): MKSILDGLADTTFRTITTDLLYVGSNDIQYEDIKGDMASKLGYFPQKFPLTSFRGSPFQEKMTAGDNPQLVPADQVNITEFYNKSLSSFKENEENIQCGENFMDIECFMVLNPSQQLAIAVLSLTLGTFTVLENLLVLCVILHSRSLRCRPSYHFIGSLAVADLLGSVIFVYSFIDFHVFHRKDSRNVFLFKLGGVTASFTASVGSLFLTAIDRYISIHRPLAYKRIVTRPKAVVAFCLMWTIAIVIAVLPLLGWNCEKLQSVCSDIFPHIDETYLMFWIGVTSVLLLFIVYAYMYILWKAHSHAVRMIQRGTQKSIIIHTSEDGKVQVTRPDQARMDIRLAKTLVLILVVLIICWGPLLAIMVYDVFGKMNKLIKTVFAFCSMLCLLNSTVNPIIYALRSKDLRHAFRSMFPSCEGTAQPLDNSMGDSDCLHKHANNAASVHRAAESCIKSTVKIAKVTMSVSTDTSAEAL

Turning to `O=C(Cc1ccccc1)N/N=C1\C(=O)N(CCC2CCCCC2)c2ccccc21`, the figures for the Activity in data set [1] and in data set [4] were 47.2% and 88.8%, respectively. The Emax turned out to be 75% in data set [2] and 21% in data set [3].
On to `CCCCCCN1C(=O)/C(=N\NC(=O)OC(C)(C)C)c2ccccc21`, for which the Ki in data set [5] was 13.9 nM. The Activity in data set [6] is 82.3%; in [7], 85.1%. Further, the figures for the Emax in data set [2] and in [3] were 92% and 43.4%, respectively.
As to `CCCCCCN1C(=O)/C(=N\NC(=O)c2ccccc2)c2cccc(C)c21`, the Activity in data set [6] stood at 68%; in [7] it was 67%. The result in data set [2] and in [8] was inactive. The same compound had an Emax in [3] of 34.2%.
For `CCCCCCN1C(=O)/C(=N/NS(=O)(=O)c2ccccc2)c2ccccc21`, the Activity in data set [1] and in [4] was below 40% in each case.
Turning to `CCCCCCN1C(=O)/C(=N\NC(=O)c2ccccc2)c2cc(C)ccc21`, the Activity in [6] is 1%; in [7] it was 22%.
Regarding `O=C1/C(=N\NC(=S)Nc2ccccc2)c2ccccc2N1CCC1CCCCC1`, the Activity in [1] and in data set [4] was below 40% in each case.
Consider `CCCCCCN1C(=O)/C(=N\NC(=O)c2ccccc2)c2cccc(I)c21`, for which the figures for the Activity in [6] and in data set [7] were 66% and 61%, respectively. This compound displayed an Emax in [9] of 55%. Also, the result in [2] and in data set [8] was inactive.
For the compound `CCCCCCN1C(=O)/C(=N\NC(=O)Nc2ccccc2)c2ccccc21`, the Activity in data set [1] and in [4] was below 40% in each case.
Consider `CCCCCCN1C(=O)/C(=N\NC(=O)c2ccc(Cl)cc2)c2ccccc21`, for which the results for the Activity in [6] and in data set [7] were 32.7% and 46.6%, respectively.
As to `O=C(N/N=C1\C(=O)N(CCN2C(=O)c3ccccc3C2=O)c2ccccc21)c1ccccc1`, the Activity in data set [6] and in [7] was 3% throughout.
`CCCCCCN1C(=O)/C(=N\NC(=O)C2CCCCC2)c2ccccc21`: the Activity stood at 61% in data set [6] and 65.8% in data set [7]. Moreover, the Emax in [3] was 58%; in [10], 40.9%.
For `CCCN1C(=O)/C(=N\NC(=O)c2ccccc2)c2ccccc21`, the Activity was 32% in data set [6] and 43% in data set [7]. In addition, the result in [2] and in data set [8] was inactive. The compound further came in with an Emax in data set [3] of 61.4%.
Take `CCCCCCN1C(=O)/C(=N\NC(=O)c2ccccc2)c2cc(F)ccc21`: the Activity in data set [6] was determined as 46%; in data set [7] it was 57%. The outcome in data set [2] and in [8] was inactive. Moreover, the Emax in data set [3] worked out at 33.8%.
Take `CCCCCCN1C(=O)/C(=N\NC(=O)c2ccccc2)c2cccc(Cl)c21`: the Activity is 29% in data set [6] and 60% in [7]. The result in data set [2] and in data set [8] was inactive. This compound also showed an Emax in [3] of 64.8%.
Take `CN1CCCCC1Cn1cc(C(=O)c2cc([N+](=O)[O-])ccc2I)c2ccccc21` (configuration not stated): the result in data set [11] was inactive.
Turning to `O=C1/C(=N\NS(=O)(=O)c2ccccc2)c2ccccc2N1CCC1CCCCC1`, the Activity in data set [1] and in data set [4] was below 40% each time.
Consider `CCCCCCN1C(=O)/C(=N\NC(=O)c2ccc(OC)cc2)c2ccccc21`, for which the Activity in data set [6] was 56%; in [7], 81.7%. For the same compound, the values for the Emax in data set [2] and in [3] were 71% and 49.5%, respectively.
With `CCCCCN1C(=O)/C(=N\NC(=O)c2ccccc2)c2cc(I)ccc21`, the Activity in data set [6] was 10%; in data set [7], 25%.
For `CCCCCCN1C(=O)/C(=N\NC(=O)c2ccccc2)c2cc(Cl)ccc21`, in that order: 6% and 9%.
Consider `CCCCCN1C(=O)/C(=N\NC(=O)c2ccccc2)c2ccccc21`, for which the figures for the Activity in data set [6] and in data set [7] were 80% and 95%, respectively. Besides, the Emax worked out at 95.1% in data set [2] and 68.5% in data set [3].
For `O=C(N/N=C1\C(=O)N(CCC2CCCCC2)c2ccccc21)c1ccccc1`, the Activity in data set [1] amounted to 79.8%; in [4], 96%. Besides, the inhibition constant (Ki) in data set [5] came to 58.8 nM. Besides, the Emax in data set [2] is 56.8%; in data set [3], 55.6%.
For the compound `CCCCCCN1C(=O)/C(=N/NC(=O)OC(C)(C)C)c2ccccc21`, the figures for the Activity in [6] and in data set [7] were 27% and 75%, respectively. In [9], this compound yielded an Emax of 23.4%. Besides, the result in data set [8] and in data set [10] was inactive.
Turning to `O=C(N/N=C1\C(=O)N(CC2CCCCC2)c2ccccc21)c1ccccc1`, the Activity in data set [6] worked out at 100%; in data set [7], 99%. In addition, the maximal effect (Emax) in data set [2] was determined as 99%; in data set [3] it was 65.7%.
Take `CCCCN1C(=O)/C(=N\NC(=O)c2ccccc2)c2ccccc21`: affinity in [5] was put at a Ki of 19.3 nM. Further, the Activity in data set [6] amounted to 70%; in data set [7] it was 86%. The Emax was 98.9% in [3] and 69% in data set [10].
For `CCCCCCN1C(=O)/C(=N\NC(=O)c2ccccc2)c2cc(OC)ccc21`, the Activity in data set [6] is 17%; in data set [7] it was 26%.
The like results for `O=C(N/N=C1\C(=O)N(c2ccccc2)c2ccccc21)c1ccccc1` were, in that order, 8% and 18%.
Turning to `O=C(N/N=C1\C(=O)N(CCC2CCCCC2)c2ccccc21)Nc1ccccc1`, the Activity in data set [1] and in [4] was below 40% throughout.
Consider `CCCCCCN1C(=O)/C(=N\NC(=O)c2cccc3ccccc23)c2ccccc21`, for which the figures for the Activity in [6] and in [7] were 69.8% and 83.9%, respectively. Besides, the Emax in data set [3] worked out at 30.5%; in data set [10], 12.9%.
Consider `CCCCCCN1C(=O)/C(=N\NC(=O)c2ccc3ccccc3c2)c2ccccc21`, for which the Activity in [6] and in data set [7] was below 30% each time.
Regarding `CCCCCCN1C(=O)/C(=N\NC(=O)c2ccccc2)c2ccccc21`, the figures for the Activity result in data set [12], in data set [1] and in data set [4] were “Non-toxic”, 92.8% and 95.5%, respectively. Besides, the inhibition constant Ki in data set [5] amounted to 44.3 nM. In addition, the outcome in [13] and in data set [15] was Active. For the same compound, the ED90 in data set [14] is 12 mg/kg. Further, the Emax amounted to 59.7% in data set [2] and 68.8% in data set [3].
In the case of `CCCCCCN1C(=O)/C(=N\NC(=S)Nc2ccccc2)c2ccccc21`, the Activity in data set [1] turned out to be 37.7%; in [4] it was 49%.
As to `CCCCCCN1C(=O)/C(=N\NC(=O)c2cc3ccccc3s2)c2ccccc21`, the Activity in data set [6] and in data set [7] was below 30% in each case.
Consider `CCCCCCN1C(=O)/C(=N\NC(=O)C23CC4CC(CC(C4)C2)C3)c2ccccc21`, for which the Activity in data set [6] amounted to 90.7%; in data set [7] it was 82.6%. In addition, the results for the Emax in data set [9] and in data set [10] were 32.1% and 34.6%, respectively.
For `CCCCCCCCCCCCN1C(=O)/C(=N\NC(=O)c2ccccc2)c2ccccc21`, the values for the Activity in data set [6] and in data set [7] were 24.3% and 23.8%, respectively.
As to `O=C(N/N=C1\C(=O)N(Cc2ccc(Cl)cc2)c2ccccc21)c1ccccc1`, the figures for the Activity in [6] and in data set [7] were 22% and 94.5%, respectively. Further, the Emax is 72% in data set [2] and 39.8% in data set [3].
As to `CCCCCCN1C(=O)/C(=N\NC(=O)Cc2ccccc2)c2ccccc21`, the results for the Activity in data set [1] and in data set [4] were 91.5% and 98.2%, respectively. The values for the Emax in data set [2] and in data set [3] were 71.9% and 45.8%, respectively.
As to `O=C(N/N=C1\C(=O)N(Cc2ccccc2)c2ccccc21)c1ccccc1`, the Ki in data set [5] turned out to be 18.5 nM. In addition, the Activity is 55% in [6] and 87% in [7]. The Emax stood at 57% in data set [2], 92.7% in data set [3] and 57% in data set [10]. In data set [16], a half-maximal response (EC50) required 63.7 nM.
`CCCCCCN1C(=O)/C(=N\NC(=O)CCCCC)c2ccccc21`: the Activity in data set [6] worked out at 36.6%; in data set [7], 45.2%.
